According to the supplement of paper PMC10307832:

Tests used:
Assay in all cases: relative viability (nuclei count vs DMSO), 5 days (fraction); higher = more cells survive
[1] = compound: CC1(C)CCC(CN2CCN(c3ccc(C(=O)NS(=O)(=O)c4ccc(NCC5CCOCC5)c([N+](=O)[O-])c4)c(Oc4cnc5[nH]ccc5c4)c3)CC2)=C(c2ccc(Cl)cc2)C1 [Venetoclax] + CC(C)C[C@H](NC(=O)[C@H](Cc1ccccc1)NC(=O)c1cnccn1)B(O)O [Bortezomib] (partner 0.002 µM)
Summary of the method: (§1)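 Cells from lung cancer lines were seeded into 1536-well plates and, one day later, dosed by pin tool. Treatments were either a single drug or a fixed dose of an anchor drug with five library-drug doses (not always all listed) in √10 steps. After 5 days, nuclei were stained in a one-step fixation (final 0.05% Triton X-100, 1% formaldehyde, 1 ug/ml Hoechst) and counted on 4× images, and relative viability is the treated-to-vehicle nuclei ratio, as the median of duplicate plates.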

[2] = compound: CC1(C)CCC(CN2CCN(c3ccc(C(=O)NS(=O)(=O)c4ccc(NCC5CCOCC5)c([N+](=O)[O-])c4)c(Oc4cnc5[nH]ccc5c4)c3)CC2)=C(c2ccc(Cl)cc2)C1 [Venetoclax] + CS(=O)(=O)N1CCN(Cc2cc3nc(-c4cccc5[nH]ncc45)nc(N4CCOCC4)c3s2)CC1 [Pictilisib] (partner 1 µM)
Summary of the method: as §1

[3] = compound: CC1(C)CCC(CN2CCN(c3ccc(C(=O)NS(=O)(=O)c4ccc(NCC5CCOCC5)c([N+](=O)[O-])c4)c(Oc4cnc5[nH]ccc5c4)c3)CC2)=C(c2ccc(Cl)cc2)C1 [Venetoclax] + O=C(c1cc(Cc2n[nH]c(=O)c3ccccc23)ccc1F)N1CCN(C(=O)C2CC2)CC1 [Olaparib] (partner 8 µM)
Summary of the method: as §1

[4] = compound: Cn1cnc2c(F)c(Nc3ccc(Br)cc3Cl)c(C(=O)NOCCO)cc21 [Selumetinib] + Cc1nc(Nc2ncc(C(=O)Nc3c(C)cccc3Cl)s2)cc(N2CCN(CCO)CC2)n1 [Dasatinib] (partner 0.075 µM)
Summary of the method: as §1

In the case of HCC-15, the relative viability ([1]; first compound 0.01 µM) is reported as 1.05, the relative viability ([1]; first compound 0.03162 µM) is reported as 1.04 and the relative viability ([1]; first compound 0.1 µM) is reported as 0.964. It also gave a relative viability ([1]; first compound 0.3162 µM) of 1, a relative viability ([1]; first compound 1 µM) of 0.875 and a relative viability ([2]; first compound 0.01 µM) of 0.652. It also gave a relative viability ([2]; first compound 0.03162 µM) of 0.804, a relative viability ([2]; first compound 0.1 µM) of 0.629 and a relative viability ([2]; first compound 0.3162 µM) of 0.706. The relative viability ([2]; first compound 1 µM) was 0.701, the relative viability ([3]; first compound 0.01 µM) was 0.607 and the relative viability ([3]; first compound 0.03162 µM) was 0.754. For the same cell line, the relative viability ([3]; first compound 0.1 µM) was 0.75, the relative viability ([3]; first compound 0.3162 µM) was 0.68 and the relative viability ([3]; first compound 1 µM) was 0.668. The relative viability ([4]; first compound 0.02 µM) was 0.296, the relative viability ([4]; first compound 0.06325 µM) was 0.231 and the relative viability ([4]; first compound 0.2 µM) was 0.19. The relative viability ([4]; first compound 0.6325 µM) was 0.146.

In the case of HCC-366, the relative viability ([1]; first compound 0.01 µM) is reported as 0.854, the relative viability ([1]; first compound 0.03162 µM) is reported as 1.05 and the relative viability ([1]; first compound 0.1 µM) is reported as 1.01. For the same cell line, the relative viability ([1]; first compound 0.3162 µM) was 0.994, the relative viability ([1]; first compound 1 µM) was 0.984 and the relative viability ([2]; first compound 0.01 µM) was 0.193. It also gave a relative viability ([2]; first compound 0.03162 µM) of 0.154, a relative viability ([2]; first compound 0.1 µM) of 0.0731 and a relative viability ([2]; first compound 0.3162 µM) of 0.184. The relative viability ([2]; first compound 1 µM) was 0.138, the relative viability ([3]; first compound 0.01 µM) was 0.4 and the relative viability ([3]; first compound 0.03162 µM) was 0.374. It also gave a relative viability ([3]; first compound 0.1 µM) of 0.372, a relative viability ([3]; first compound 0.3162 µM) of 0.353 and a relative viability ([3]; first compound 1 µM) of 0.311. For the same cell line, the relative viability ([4]; first compound 0.02 µM) was 0.501, the relative viability ([4]; first compound 0.06325 µM) was 0.566 and the relative viability ([4]; first compound 0.2 µM) was 0.456. It also gave a relative viability ([4]; first compound 0.6325 µM) of 0.367.

LU99A was tested, and the relative viability ([1]; first compound 0.01 µM) was 1.13, the relative viability ([1]; first compound 0.03162 µM) was 1.32 and the relative viability ([1]; first compound 0.1 µM) was 0.925. The relative viability ([1]; first compound 0.3162 µM) was 1.19, the relative viability ([1]; first compound 1 µM) was 1.23 and the relative viability ([2]; first compound 0.01 µM) was 0.321. For the same cell line, the relative viability ([2]; first compound 0.03162 µM) was 0.357, the relative viability ([2]; first compound 0.1 µM) was 0.362 and the relative viability ([2]; first compound 0.3162 µM) was 0.297. The relative viability ([2]; first compound 1 µM) was 0.319, the relative viability ([3]; first compound 0.01 µM) was 0.301 and the relative viability ([3]; first compound 0.03162 µM) was 0.287. The relative viability ([3]; first compound 0.1 µM) was 0.255, the relative viability ([3]; first compound 0.3162 µM) was 0.283 and the relative viability ([3]; first compound 1 µM) was 0.254. It also gave a relative viability ([4]; first compound 0.02 µM) of 0.58, a relative viability ([4]; first compound 0.06325 µM) of 0.643 and a relative viability ([4]; first compound 0.2 µM) of 0.509. For the same cell line, the relative viability ([4]; first compound 0.6325 µM) was 0.6.

In the case of SW 1573, the relative viability ([1]; first compound 0.01 µM) is reported as 0.983, the relative viability ([1]; first compound 0.03162 µM) is reported as 1.06 and the relative viability ([1]; first compound 0.1 µM) is reported as 1.02. For the same cell line, the relative viability ([1]; first compound 0.3162 µM) was 1.18, the relative viability ([1]; first compound 1 µM) was 0.997 and the relative viability ([2]; first compound 0.01 µM) was 0.471. It also gave a relative viability ([2]; first compound 0.03162 µM) of 0.615, a relative viability ([2]; first compound 0.1 µM) of 0.435 and a relative viability ([2]; first compound 0.3162 µM) of 0.459. It also gave a relative viability ([2]; first compound 1 µM) of 0.487, a relative viability ([3]; first compound 0.01 µM) of 0.581 and a relative viability ([3]; first compound 0.03162 µM) of 0.516. For the same cell line, the relative viability ([3]; first compound 0.1 µM) was 0.479, the relative viability ([3]; first compound 0.3162 µM) was 0.473 and the relative viability ([3]; first compound 1 µM) was 0.399. For the same cell line, the relative viability ([4]; first compound 0.02 µM) was 0.589, the relative viability ([4]; first compound 0.06325 µM) was 0.362 and the relative viability ([4]; first compound 0.2 µM) was 0.534. It also gave a relative viability ([4]; first compound 0.6325 µM) of 0.446.

NCI-H1703 was tested, and the relative viability ([1]; first compound 0.01 µM) was 0.306, the relative viability ([1]; first compound 0.03162 µM) was 0.313 and the relative viability ([1]; first compound 0.1 µM) was 0.21. The relative viability ([1]; first compound 0.3162 µM) was 0.397, the relative viability ([1]; first compound 1 µM) was 0.374 and the relative viability ([2]; first compound 0.01 µM) was 0.22. The relative viability ([2]; first compound 0.03162 µM) was 0.266, the relative viability ([2]; first compound 0.1 µM) was 0.206 and the relative viability ([2]; first compound 0.3162 µM) was 0.229. For the same cell line, the relative viability ([2]; first compound 1 µM) was 0.236, the relative viability ([3]; first compound 0.01 µM) was 0.35 and the relative viability ([3]; first compound 0.03162 µM) was 0.328. For the same cell line, the relative viability ([3]; first compound 0.1 µM) was 0.333, the relative viability ([3]; first compound 0.3162 µM) was 0.44 and the relative viability ([3]; first compound 1 µM) was 0.476.

With NCI-H2170 the relative viability ([2]; first compound 0.01 µM) was 0.266, the relative viability ([2]; first compound 0.03162 µM) was 0.3 and the relative viability ([2]; first compound 0.1 µM) was 0.296. It also gave a relative viability ([2]; first compound 0.3162 µM) of 0.306, a relative viability ([2]; first compound 1 µM) of 0.302 and a relative viability ([3]; first compound 0.01 µM) of 0.57. It also gave a relative viability ([3]; first compound 0.03162 µM) of 0.639, a relative viability ([3]; first compound 0.1 µM) of 0.573 and a relative viability ([3]; first compound 0.3162 µM) of 0.615. It also gave a relative viability ([3]; first compound 1 µM) of 0.591, a relative viability ([4]; first compound 0.02 µM) of 0.533 and a relative viability ([4]; first compound 0.06325 µM) of 0.515. It also gave a relative viability ([4]; first compound 0.2 µM) of 0.48 and a relative viability ([4]; first compound 0.6325 µM) of 0.412.

For NCI-H2087, the relative viability ([1]; first compound 0.01 µM) was 0.808, the relative viability ([1]; first compound 0.03162 µM) was 0.766 and the relative viability ([1]; first compound 0.1 µM) was 1. The relative viability ([1]; first compound 0.3162 µM) was 0.83, the relative viability ([1]; first compound 1 µM) was 0.753 and the relative viability ([2]; first compound 0.01 µM) was 1.08. It also gave a relative viability ([2]; first compound 0.03162 µM) of 1.08, a relative viability ([2]; first compound 0.1 µM) of 0.832 and a relative viability ([2]; first compound 0.3162 µM) of 0.921. It also gave a relative viability ([2]; first compound 1 µM) of 0.789, a relative viability ([3]; first compound 0.01 µM) of 0.611 and a relative viability ([3]; first compound 0.03162 µM) of 0.736. For the same cell line, the relative viability ([3]; first compound 0.1 µM) was 0.45, the relative viability ([3]; first compound 0.3162 µM) was 0.567 and the relative viability ([3]; first compound 1 µM) was 0.692. The relative viability ([4]; first compound 0.02 µM) was 0.535, the relative viability ([4]; first compound 0.06325 µM) was 0.293 and the relative viability ([4]; first compound 0.2 µM) was 0.273. The relative viability ([4]; first compound 0.6325 µM) was 0.13.

In the case of LCLC-103H, the relative viability ([1]; first compound 0.01 µM) is reported as 1.02, the relative viability ([1]; first compound 0.03162 µM) is reported as 1.04 and the relative viability ([1]; first compound 0.1 µM) is reported as 1.16. It also gave a relative viability ([1]; first compound 0.3162 µM) of 1.09, a relative viability ([1]; first compound 1 µM) of 1.1 and a relative viability ([2]; first compound 0.01 µM) of 0.686. The relative viability ([2]; first compound 0.03162 µM) was 0.566, the relative viability ([2]; first compound 0.1 µM) was 0.635 and the relative viability ([2]; first compound 0.3162 µM) was 0.676. The relative viability ([2]; first compound 1 µM) was 0.619, the relative viability ([3]; first compound 0.01 µM) was 0.778 and the relative viability ([3]; first compound 0.03162 µM) was 0.846. For the same cell line, the relative viability ([3]; first compound 0.1 µM) was 0.783, the relative viability ([3]; first compound 0.3162 µM) was 0.787 and the relative viability ([3]; first compound 1 µM) was 0.752. It also gave a relative viability ([4]; first compound 0.02 µM) of 0.524, a relative viability ([4]; first compound 0.06325 µM) of 0.505 and a relative viability ([4]; first compound 0.2 µM) of 0.568. It also gave a relative viability ([4]; first compound 0.6325 µM) of 0.491.

In the case of NCI-H1755, the relative viability ([1]; first compound 0.01 µM) is reported as 0.993, the relative viability ([1]; first compound 0.03162 µM) is reported as 1.01 and the relative viability ([1]; first compound 0.1 µM) is reported as 0.911. The relative viability ([1]; first compound 0.3162 µM) was 0.965, the relative viability ([1]; first compound 1 µM) was 0.943 and the relative viability ([2]; first compound 0.01 µM) was 0.346. For the same cell line, the relative viability ([2]; first compound 0.03162 µM) was 0.482, the relative viability ([2]; first compound 0.1 µM) was 0.398 and the relative viability ([2]; first compound 0.3162 µM) was 0.449. The relative viability ([2]; first compound 1 µM) was 0.465, the relative viability ([3]; first compound 0.01 µM) was 0.879 and the relative viability ([3]; first compound 0.03162 µM) was 0.873. For the same cell line, the relative viability ([3]; first compound 0.1 µM) was 0.917, the relative viability ([3]; first compound 0.3162 µM) was 0.832 and the relative viability ([3]; first compound 1 µM) was 0.831. For the same cell line, the relative viability ([4]; first compound 0.02 µM) was 0.417, the relative viability ([4]; first compound 0.06325 µM) was 0.388 and the relative viability ([4]; first compound 0.2 µM) was 0.407. The relative viability ([4]; first compound 0.6325 µM) was 0.476.
